Experimental data reported in patent US4247712A, “Preservation of aqueous systems with 2-chloro-3-oxobutyramide derivatives” (Givaudan Corporation, priority 1979, dated 1981).
Values after ≈ are worked out from the molar mass of the structure shown. Like-named read-outs stand apart in the source and are kept apart here.

Legend:
Format in all cases: cell-based
[1] = tested on: Pseudomonas aeruginosa; assay: Utility as a cosmetic preservative (cosmetic lotion); conditions: weekly reinoculation
Experimental: (§1) The 2-Chloro-3-oxobutyramide derivatives are effective cosmetic preservatives. Two-fold serial dilutions of 6% solutions of the 2-haloacetoacetic acid derivatives in dimethylformamide were added to a cosmetic lotion of the following formulation: |Stearic acid 1.4 g |Arlacel 60 (sorbitan |monostearate) 0.7 g |Tween 20 Polyoxethylene |(20) sorbitan |monostearate 1.6 g |Distilled water 94.0 g The lotions were inoculated with both Pseudomonas aeruginosa and Aspergillus niger and incubated at 28° C. At weekly intervals, the lotions were examined for microorganisms by conventional streak-plate methods or by macroscopic observation. The lotions were then reinoculated with the test organisms and reincubated.

[2] = tested on: Aspergillus niger; assay: as above; conditions: weekly reinoculation
Experimental: as §1

[3] = tested on: P. piscarium; assay: Effectiveness as slimicide for pulp and paper mill water systems; conditions: read-out: Effectiveness as slimicide (inhibitory concentration range)
Experimental: (§2) Various quantities of a 6% solution of this compound in dimethylformamide were incorporated into 24 ml of a test substrate composed as follows: 84.4 g Whatman No. 2 powdered cellulose 2.6 g Sodium nitrate 1.0 g Calcium sulfate 6.5 g Maltose 1.0 g Nutrient Broth, Difco 10.0 ml Mersize Rm […] (Monsanto) 2.5 ml 2% Alum 900 ml Distilled water The samples were inoculated with four different organisms and incubated at 28° C. At weekly intervals the samples were examined for the presence of microbial growth and reinoculated during a total incubation period of four weeks.

[4] = tested on: A. niger; assay: as above; conditions: range: growth at lower, none at higher, 62.5 = lowest concentration tested, no growth at it; for MIC: Aspergillus niger, week 1, 28° C., read-out: Effectiveness as slimicide (inhibitory concentration range)
Experimental: as §2

[5] = tested on: P. aeruginosa; assay: as above; conditions: 62.5 = lowest concentration tested, no growth at it; for MIC: Pseudomonas aeruginosa, week 1, 28° C., read-out: Effectiveness as slimicide (inhibitory concentration range)
Experimental: as §2

[6] = tested on: E. aerogenes; assay: as above; conditions: Klebsiella aerogenes, range: growth at lower, read-out: Effectiveness as slimicide (inhibitory concentration range)
Experimental: as §2

[7] = tested on: Aureobasidium pullulans; assay: General antimicrobial activity, 5-fold serial dilution test in agar (MIC); conditions: 168 h, 28° C., seven days, growth only at lower concentration of range, read-out: minimum inhibitory concentration (MIC), F4
Experimental: (§3) General antibacterial and antifungal activity was evaluated by a 5-fold serial dilution test in agar. In this test, compounds were prepared as 6% solutions in dimethylformamide or ethanol. The 6% solution was then 5-fold serially diluted in test tubes to give the desired concentrations when mixed with agar and poured into sterile Petri dishes. Tryptone glucose extract agar was used for the bacterial testing; mildew glucose agar for the fungal testing. The bacterial plates were spot inoculated with 24-hour nutrient broth cultures and incubated at 37° C. for 48 hours. The fungal plates were spot inoculated with spore suspensions and incubated at 28° C. for seven days. At the end of the incubation periods, all plates were examined for growth. The minimum inhibitory concentration (MIC) for each organism is expressed in Table I. In the ranges presented, growth is observed only at the lower concentration.
(§4) The activity is presented in Tabular Form (Table I) using the following key.

[8] = tested on: Aspergillus oryzae; assay: as above; conditions: 168 h, 28° C., seven days, growth only at lower concentration of range, read-out: minimum inhibitory concentration (MIC), F2
Experimental: as §3, §4

[9] = tested on: Pseudomonas aeruginosa; assay: as above; conditions: 37° C., 48 hours, growth only at lower concentration of range, read-out: minimum inhibitory concentration (MIC), B3
Experimental: as §3, §4

[10] = tested on: Bacillus subtilis; assay: as above; conditions: 37° C., 48 hours, growth only at lower concentration of range, read-out: minimum inhibitory concentration (MIC), B5
Experimental: as §3, §4

[11] = tested on: Staphylococcus aureus; assay: as above; conditions: 37° C., 48 hours, growth only at lower concentration of range, read-out: minimum inhibitory concentration (MIC), B1
Experimental: as §3, §4

[12] = tested on: Penicillium piscarium; assay: as above; conditions: 168 h, 28° C., seven days, growth only at lower concentration of range, read-out: minimum inhibitory concentration (MIC), F3
Experimental: as §3, §4

[13] = tested on: Proteus vulgaris; assay: as above; conditions: 37° C., 48 hours, growth only at lower concentration of range, read-out: minimum inhibitory concentration (MIC), B4
Experimental: as §3, §4

[14] = tested on: Escherichia coli; assay: as above; conditions: 37° C., 48 hours, growth only at lower concentration of range, read-out: minimum inhibitory concentration (MIC), B2
Experimental: as §3, §4

[15] = tested on: Aspergillus niger; assay: as above; conditions: 168 h, 28° C., seven days, growth only at lower concentration of range, read-out: minimum inhibitory concentration (MIC), F1
Experimental: as §3, §4

[16] = tested on: Pseudomonas aeruginosa; assay: Utility in water and oil emulsions (3.3% cutting oil emulsions); conditions: 28° C., weekly reinoculation, read-out: Minimum Inhibitory Concentration Range
Experimental: The utility of the 2-chloro-3-oxobutyramide derivatives in water and oil emulsions is illustrated below using a commercially available cutting oil. In running these tests, two-fold serial dilutions of 6% solutions of the compound in dimethylformamide was added to 3.3% cutting oil emulsions. The emulsions were prepared by diluting with water a commercially available cutting oil concentrate. The emulsions were inoculated with a culture of Pseudomonas aeruginosa and incubated at 28° C. on a rotary shaker. At weekly intervals, the emulsions were examined for bacteria by conventional streak-plate methods. The emulsions were then reinoculated with Pseudomonas aeruginosa and reincubated. […] indicate the activity range for that compound.

[17] = week 1, 28° C., 62.5 = lowest concentration tested, no growth at it
[18] = week 2, 28° C., range: growth at lower, none at higher concentration
[19] = week 3, 28° C., range: growth at lower, none at higher concentration
[20] = week 4, 28° C., range: growth at lower, none at higher concentration
[21] = week 1, 28° C., none at higher, 62.5 = lowest concentration tested, no growth at it
[22] = week 2, 28° C., none at higher, 62.5 = lowest concentration tested, no growth at it
[23] = week 3, 28° C., none at higher concentration
[24] = week 4, 28° C., none at higher concentration
[25] = Week 1, 3.3% cutting oil emulsion
[26] = Week 2, 3.3% cutting oil emulsion
[27] = Week 3, 3.3% cutting oil emulsion
[28] = Week 4, 3.3% cutting oil emulsion

SMILES | minimum inhibitory concentration effective in preventing microbial growth ([1]; Week 1, 28° C.) | minimum inhibitory concentration effective in preventing microbial growth ([1]; Week 2, 28° C.) | minimum inhibitory concentration effective in preventing microbial growth ([1]; Week 3, 28° C.) | minimum inhibitory concentration effective in preventing microbial growth ([1]; Week 4, 28° C.) | minimum inhibitory concentration effective in preventing microbial growth ([2]; Week 1, 28° C.) | minimum inhibitory concentration effective in preventing microbial growth ([2]; Week 2, 28° C.) | minimum inhibitory concentration effective in preventing microbial growth ([2]; Week 3, 28° C.) | minimum inhibitory concentration effective in preventing microbial growth ([2]; Week 4, 28° C.) | MIC [7] [µg/mL] | MIC [8] [µg/mL] | MIC [9] [µg/mL] | MIC [10] [µg/mL] | MIC [11] [µg/mL] | MIC [12] [µg/mL] | MIC [13] [µg/mL] | MIC [14] [µg/mL] | MIC [15] [µg/mL] | MIC [16, 25] [µg/mL] | MIC [16, 26] [µg/mL] | MIC [16, 27] [µg/mL] | further results
CC(=O)NC(=O)C(Cl)C(C)=O (centres unmarked) [N-Acetyl-2-Chloro-3-oxobutyramide, N-Acetyl-2-chloro-3-oxobutyramide] | 5 (63-125 mcg/gm) | 5 (63-125 mcg/gm) | 4 (125-250 mcg/gm) | 4 (125-250 mcg/gm) | 5 (63-125 mcg/gm) | 4 (125-250 mcg/gm) | 3 (250-500 mcg/gm) | 2 (500-1000 mcg/gm) | 76.8 to 384 (≈ 432 to 2160 µM) | 76.8 to 384 (≈ 432 to 2160 µM) | 15.3 to 76.8 (≈ 86.2 to 432 µM) | 76.8 to 384 (≈ 432 to 2160 µM) | 76.8 to 384 (≈ 432 to 2160 µM) | 76.8 to 384 (≈ 432 to 2160 µM) | 76.8 to 384 (≈ 432 to 2160 µM) | 15.3 to 76.8 (≈ 86.2 to 432 µM) | 76.8 to 384 (≈ 432 to 2160 µM) | 32 to 63 (≈ 180 to 355 µM) | 63 to 125 (≈ 355 to 704 µM) | 125 to 500 (≈ 704 to 2820 µM) | MIC [3, 17]: 62.5 µg/mL (≈ 352 µM); MIC [3, 18]: 62.5 to 125 µg/mL (≈ 352 to 704 µM); MIC [3, 19]: 62.5 to 125 µg/mL (≈ 352 to 704 µM); MIC [3, 20]: 62.5 to 125 µg/mL (≈ 352 to 704 µM); MIC [4]: 62.5 to 125 µg/mL (≈ 352 to 704 µM); Effectiveness as slimicide (inhibitory concentration range) ([4]; week 2, 28° C.): 62.5 to 125 µg/mL; Effectiveness as slimicide (inhibitory concentration range) ([4]; week 3, 28° C.): 62.5 to 125 µg/mL; Effectiveness as slimicide (inhibitory concentration range) ([4]; week 4, 28° C.): 62.5 to 125 µg/mL; MIC [5]: 62.5 µg/mL (≈ 352 µM); Effectiveness as slimicide (inhibitory concentration range) ([5]; week 2, 28° C.): 62.5 µg/mL; Effectiveness as slimicide (inhibitory concentration range) ([5]; week 3, 28° C.): 62.5 µg/mL; Effectiveness as slimicide (inhibitory concentration range) ([5]; week 4, 28° C.): 62.5 µg/mL; MIC [6, 21]: 62.5 to 125 µg/mL (≈ 352 to 704 µM); MIC [6, 22]: 125 to 250 µg/mL (≈ 704 to 1410 µM); MIC [6, 23]: 250 to 500 µg/mL (≈ 1410 to 2820 µM); MIC [6, 24]: 250 to 500 µg/mL (≈ 1410 to 2820 µM); MIC [16, 28]: 125 to 500 µg/mL (≈ 704 to 2820 µM)
CCOC(=O)NC(=O)C(Cl)C(C)=O (centres unmarked) [R1=H, R2=COOC2 H5, N-Carboethoxy-2-chloroacetoacetamide] | 5 (63-125 mcg/gm) | 4 (125-250 mcg/gm) | 4 (125-250 mcg/gm) | 4 (125-250 mcg/gm) | 4 (125-250 mcg/gm) | 3 (250-500 mcg/gm) | 3 (250-500 mcg/gm) | 3 (250-500 mcg/gm) | 76.8 to 384 (≈ 370 to 1850 µM) | 76.8 to 384 (≈ 370 to 1850 µM) | 76.8 to 384 (≈ 370 to 1850 µM) | 76.8 to 384 (≈ 370 to 1850 µM) | 76.8 to 384 (≈ 370 to 1850 µM) | 76.8 to 384 (≈ 370 to 1850 µM) | 76.8 to 384 (≈ 370 to 1850 µM) | 76.8 to 384 (≈ 370 to 1850 µM) | 76.8 to 384 (≈ 370 to 1850 µM) | 32 to 63 (≈ 154 to 303 µM) | 63 to 125 (≈ 303 to 602 µM) | 63 to 125 (≈ 303 to 602 µM) | MIC [16, 28]: 125 to 500 µg/mL (≈ 602 to 2410 µM)
CC(=O)C(Cl)C(N)=O (centres unmarked) [2-Chloro-3-oxobutyramide] | 5 (63-125 mcg/gm) | 5 (63-125 mcg/gm) | 4 (125-250 mcg/gm) | 4 (125-250 mcg/gm) | 5 (63-125 mcg/gm) | 5 (63-125 mcg/gm) | 4 (125-250 mcg/gm) | 2 (500-1000 mcg/gm) | 15.3 to 76.8 (≈ 113 to 567 µM) | 15.3 to 76.8 (≈ 113 to 567 µM) | 15.3 to 76.8 (≈ 113 to 567 µM) | 15.3 to 76.8 (≈ 113 to 567 µM) | 15.3 to 76.8 (≈ 113 to 567 µM) | 15.3 to 76.8 (≈ 113 to 567 µM) | 15.3 to 76.8 (≈ 113 to 567 µM) | 15.3 to 76.8 (≈ 113 to 567 µM) | 15.3 to 76.8 (≈ 113 to 567 µM) | 8 to 16 (≈ 59 to 118 µM) | 63 to 125 (≈ 465 to 922 µM) | 63 to 125 (≈ 465 to 922 µM) | MIC [3, 17]: 62.5 µg/mL (≈ 461 µM); MIC [3, 18]: 62.5 to 125 µg/mL (≈ 461 to 922 µM); MIC [3, 19]: 125 to 250 µg/mL (≈ 922 to 1840 µM); MIC [3, 20]: 125 to 250 µg/mL (≈ 922 to 1840 µM); MIC [4]: 62.5 µg/mL (≈ 461 µM); Effectiveness as slimicide (inhibitory concentration range) ([4]; week 2, 28° C.): 62.5 µg/mL; Effectiveness as slimicide (inhibitory concentration range) ([4]; week 3, 28° C.): 62.5 µg/mL; Effectiveness as slimicide (inhibitory concentration range) ([4]; week 4, 28° C.): 62.5 µg/mL; MIC [5]: 62.5 µg/mL (≈ 461 µM); Effectiveness as slimicide (inhibitory concentration range) ([5]; week 2, 28° C.): 62.5 µg/mL; Effectiveness as slimicide (inhibitory concentration range) ([5]; week 3, 28° C.): 62.5 µg/mL; Effectiveness as slimicide (inhibitory concentration range) ([5]; week 4, 28° C.): 62.5 µg/mL; MIC [6, 21]: 62.5 µg/mL (≈ 461 µM); MIC [6, 22]: 62.5 µg/mL (≈ 461 µM); MIC [6, 23]: 62.5 to 125 µg/mL (≈ 461 to 922 µM); MIC [6, 24]: 62.5 to 125 µg/mL (≈ 461 to 922 µM); MIC [16, 28]: 63 to 125 µg/mL (≈ 465 to 922 µM)
